According to patent US20220267260A1, “COMPOUNDS CONTAINING A SULFONIC GROUP AS KAT INHIBITORS” (Epizyme, Inc., priority 2016, published 2022):
pIC50: −log10 of the molar value. Values belong to the compound of their own block, whether it stands above or below them.

Assays:
[1] = molecular target: T1, KAT5 (Homo sapiens, UniProt Q92993); assay: KAT5 enzyme inhibition assay (SAMDI mass spectrometry); type: biochemical; conditions: His-TEV-FL KAT5-Flag enzyme construct
T1 construct: His-TEV tag (N, cleaved yes); made in house
T1 sequence (Q92993 with tags, fused parts or gaps): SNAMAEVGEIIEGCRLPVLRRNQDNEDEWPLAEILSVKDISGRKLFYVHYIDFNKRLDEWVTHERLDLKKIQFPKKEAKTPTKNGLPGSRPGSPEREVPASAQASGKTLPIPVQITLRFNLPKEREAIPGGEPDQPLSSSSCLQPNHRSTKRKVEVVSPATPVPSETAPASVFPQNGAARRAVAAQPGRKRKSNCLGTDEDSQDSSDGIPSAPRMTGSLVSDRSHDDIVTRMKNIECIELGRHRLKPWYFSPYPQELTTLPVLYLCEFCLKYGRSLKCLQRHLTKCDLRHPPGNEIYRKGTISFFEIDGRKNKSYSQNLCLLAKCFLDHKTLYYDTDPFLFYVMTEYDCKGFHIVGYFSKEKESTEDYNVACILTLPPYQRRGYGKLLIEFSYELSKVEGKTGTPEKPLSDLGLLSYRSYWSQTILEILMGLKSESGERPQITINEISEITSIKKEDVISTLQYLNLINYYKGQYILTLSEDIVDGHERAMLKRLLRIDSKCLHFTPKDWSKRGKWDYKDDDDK

[2] = molecular target: T2, KAT6A (Homo sapiens, UniProt Q92794); assay: KAT6A enzyme inhibition assay (SAMDI mass spectrometry); type: biochemical; conditions: His-TEV-KAT6A 501-784 enzyme construct
T2 construct: His-TEV tag (N, cleaved yes); made in house
T2 sequence (Q92794 with tags, fused parts or gaps): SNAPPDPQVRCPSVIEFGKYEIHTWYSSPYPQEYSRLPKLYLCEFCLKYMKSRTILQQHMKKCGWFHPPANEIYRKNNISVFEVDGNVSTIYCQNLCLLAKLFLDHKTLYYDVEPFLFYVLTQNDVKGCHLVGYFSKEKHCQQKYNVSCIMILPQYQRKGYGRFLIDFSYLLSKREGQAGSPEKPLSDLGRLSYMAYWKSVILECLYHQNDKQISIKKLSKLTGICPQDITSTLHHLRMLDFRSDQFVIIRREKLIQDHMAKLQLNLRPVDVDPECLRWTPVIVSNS

pIC50 [1]: 4.30 to 5.00 | pIC50 [2]: ≥ 5.00
Structure (SMILES): COc1cc(-c2ccccc2)cc(C(=O)NNS(=O)(=O)c2ccccc2)c1F [Compound I-129]

pIC50 [1]: < 4.00 | pIC50 [2]: < 4.00
Structure (SMILES): O=C(NNS(=O)(=O)c1ccccc1)c1cccc2ccccc12 [Compound I-180]

pIC50 [1]: ≥ 5.00 | pIC50 [2]: ≥ 5.00
Structure (SMILES): COc1cccc(CS(=O)(=O)NNC(=O)c2cc(-c3ccccc3)cc(C)c2F)c1 [Compound I-80]

pIC50 [1]: 4.30 to 5.00 | pIC50 [2]: < 4.00
Structure (SMILES): Cc1cc(-c2ccccc2)cc(C(=O)NNS(=O)(=O)CC2CCCNC2)c1F (stereo not drawn) [Compound I-351]

pIC50 [1]: ≥ 5.00 | pIC50 [2]: ≥ 5.00
Structure (SMILES): Cc1cc(-c2ccccc2)cc(C(=O)NNS(=O)(=O)c2cccc(F)c2)c1F [Compound I-214]

pIC50 [1]: < 4.00 | pIC50 [2]: < 4.00
Structure (SMILES): Cc1cc(-c2ccccc2)cc(C(=O)NS(=O)(=O)N2CCCC2)c1F [Compound I-151]

pIC50 [1]: 4.30 to 5.00 | pIC50 [2]: ≥ 5.00
Structure (SMILES): O=C(NNS(=O)(=O)c1cccc(Cl)c1)c1cc(-c2ccccc2)ccc1F [Compound I-152]

pIC50 [1]: < 4.00 | pIC50 [2]: 4.30 to 5.00
Structure (SMILES): Cc1cc(-c2ccccc2)cc(C(=O)NNS(=O)(=O)C2CN(Cc3ccccc3)C2)c1F [Compound I-61]

pIC50 [1]: < 4.00 | pIC50 [2]: 4.30 to 5.00
Structure (SMILES): CCN1CCCC(S(=O)(=O)NNC(=O)c2cc(-c3ccccc3)cc(C)c2F)C1 (stereo not drawn) [Compound I-99]

pIC50 [1]: 4.30 to 5.00 | pIC50 [2]: ≥ 5.00
Structure (SMILES): O=C(NNS(=O)(=O)c1cccc(F)c1)c1cc(-c2ccccc2)ccc1F [Compound I-154]

pIC50 [1]: < 4.00 | pIC50 [2]: ≥ 5.00
Structure (SMILES): O=C(NNS(=O)(=O)c1ccccc1)c1cccc(-c2ccccc2)c1 [Compound I-144]

pIC50 [1]: 4.00 to 4.30 | pIC50 [2]: ≥ 5.00
Structure (SMILES): CCC(=O)N1CCCC(S(=O)(=O)NNC(=O)c2cc(-c3ccccc3)cc(C)c2F)C1 (stereo not drawn) [Compound I-110]

pIC50 [1]: < 4.00 | pIC50 [2]: < 4.00
Structure (SMILES): Cc1cc(-c2ccccc2)cc(C(=O)NNc2ncccn2)c1F [Compound I-309]

Second part, the compound before the results:

Structure (SMILES): Cc1cc(F)cc(-c2cc(Cl)c(F)c(C(=O)NNS(=O)(=O)C3CCCCC3)c2)c1 [Compound I-484]
pIC50 [1]: 4.30 to 5.00 | pIC50 [2]: 4.30 to 5.00

Structure (SMILES): CNCCC(=O)N1CCCC(CS(=O)(=O)NNC(=O)c2cc(-c3ccccc3)cc(C)c2F)C1 (stereo not drawn) [Compound I-333]
pIC50 [1]: 4.30 to 5.00 | pIC50 [2]: 4.30 to 5.00

Structure (SMILES): COCCN1CCCC(C(C)S(=O)(=O)NNC(=O)c2cc(-c3ccccc3)cc(C)c2F)C1 (stereo not drawn) [Compound I-334]
pIC50 [1]: 4.30 to 5.00 | pIC50 [2]: 4.30 to 5.00

Structure (SMILES): O=C(NNC(c1ccccc1)C(F)(F)F)c1ccccc1F (stereo not drawn) [Compound I-134]
pIC50 [1]: < 4.00 | pIC50 [2]: < 4.00

Structure (SMILES): COCc1cc(Cl)c(F)c(C(=O)NNS(=O)(=O)CC2CCOCC2)c1 [Compound I-452]
pIC50 [1]: ≥ 5.00 | pIC50 [2]: ≥ 5.00

Structure (SMILES): COCC(=O)N1CCCC(CS(=O)(=O)NNC(=O)c2cc(-c3ccccc3)cc(C)c2F)C1 (stereo not drawn) [Compound I-346]
pIC50 [1]: ≥ 5.00 | pIC50 [2]: ≥ 5.00

Structure (SMILES): COCCNC(=O)c1cccc(-c2cc(C)c(F)c(C(=O)NNS(=O)(=O)CC3CCCCC3)c2)c1 [Compound I-447]
pIC50 [1]: ≥ 5.00 | pIC50 [2]: 4.30 to 5.00

Structure (SMILES): COc1c(C)cc(-c2ccccc2)cc1C(=O)NNS(=O)(=O)C1CCCCC1 [Compound I-311]
pIC50 [1]: < 4.00 | pIC50 [2]: < 4.00

Structure (SMILES): Nc1ccc(-c2cc(Cl)c(F)c(C(=O)NNS(=O)(=O)C3CCOCC3)c2)cc1 [Compound I-455]
pIC50 [1]: 4.30 to 5.00 | pIC50 [2]: < 4.00

Structure (SMILES): Cc1cc(-c2ccccc2)cc(C(=O)NNS(=O)(=O)CC2CN(C(=O)OC(C)(C)C)C2)c1F [Compound I-207]
pIC50 [1]: ≥ 5.00 | pIC50 [2]: ≥ 5.00

Structure (SMILES): COc1ccc(Cn2cnc3c(C(=O)NNS(=O)(=O)c4ccccc4)cc(-c4ccccc4)cc32)cc1 [Compound I-248]
pIC50 [1]: 4.00 to 4.30 | pIC50 [2]: 4.30 to 5.00

Structure (SMILES): O=C(NNS(=O)(=O)C1CCOCC1)c1cc(C(=O)N2CCOCC2)cc(Cl)c1F [Compound I-439]
pIC50 [1]: < 4.00 | pIC50 [2]: < 4.00

Structure (SMILES): O=C(NNS(=O)(=O)C1CCCCC1)c1cc(-c2ccccc2F)cc(Cl)c1F [Compound I-390]
pIC50 [1]: ≥ 5.00 | pIC50 [2]: ≥ 5.00

Structure (SMILES): Cc1cc(-c2ccccc2F)cc(C(=O)NNS(=O)(=O)C2CCCCC2)c1F [Compound I-321]
pIC50 [1]: ≥ 5.00 | pIC50 [2]: 4.30 to 5.00
